The structures appear in SMILES notation. pIC50: −log10 of the molar value. Activity calls are given as the source filed them. The rule behind the calls is not given here.

Holding throughout (type): functional, cell-based
Experiment [1] has as its system HeLa. Put plainly: Cytotoxicity against human HeLa cells up to 10 uM after 12 hrs by WST-8 assay. A general note: Formazan colour is commonly taken as a measure of viable cells.
Experiment [2] concerns HeLa. The experiment is described as follows: Cytotoxicity against human HeLa cells of light exposed compound after 12 hrs by WST-8 assay.
In experiment [3] the test system is HeLa. The experiment is described as follows: Cytotoxicity against human HeLa cells of light exposed compound up to 10 uM after 12 hrs by WST-8 assay.

By pIC50 is commonly meant the IC50 on a negative log10 scale, so that one unit is a factor of ten. On to `CCC1=C(C)c2cc3[nH]c(cc4nc(c5c6[nH]c(cc1n2)c(C)c6C(=O)C5)[C@@H](CCC(=O)OC)[C@@H]4C)c(C)c3/C=C/c1cc[n+](C)cc1`, for which, in the experiment with HeLa [1], the result was inactive. Moreover, in the experiment with HeLa [2], the Activity result is “Dose-dependent effect” and the pIC50 is 5.10. The result in the experiment with HeLa [3] was Active.

Regarding `C=Cc1c(C)c2cc3nc(c4c5[nH]c(cc6nc(cc1[nH]2)C(C)=C6CC)c(C)c5C(=O)C4)[C@@H](CCC(=O)OC)[C@@H]3C` [METHYL PYROPHEOPHORBIDE A], in the experiment with HeLa [1], the result was inactive. Also, in the experiment on HeLa [2], the Activity entry was “Dose-dependent effect” and the pIC50 is 6.55. Further, in the experiment on HeLa [3], the outcome was Active.

In the case of `CCC1=C(C)c2cc3[nH]c(cc4nc(c5c6[nH]c(cc1n2)c(C)c6C(=O)C5)[C@@H](CCC(=O)OC)[C@@H]4C)c(C)c3/C=C/c1ccc2ccccc2[n+]1C`, the outcome in the experiment on HeLa [1] was inactive. In the experiment on HeLa [2], the Activity result is “Dose-dependent effect” and the pIC50 is 5.27. In the experiment on HeLa [3], the result was Active.

On to `CCC1=C(C)c2cc3[nH]c(cc4nc(c5c6[nH]c(cc1n2)c(C)c6C(=O)N(OC)C5=O)[C@@H](CCC(=O)OC)[C@@H]4C)c(C)c3/C=C/c1cccc[n+]1C`, for which, in the experiment with HeLa [1], the result was inactive. Further, in the experiment on HeLa [2], the Activity result is “Dose-dependent effect” and the pIC50 is 6.96. In the experiment with HeLa [3], the result was Active.

As for `C=Cc1c(C)c2cc3nc(c4c5[nH]c(cc6nc(cc1[nH]2)C(C)=C6CC)c(C)c5C(=O)N(OC)C4=O)[C@@H](CCC(=O)OC)[C@@H]3C`, the result with HeLa [1] was inactive. Also, in the experiment with HeLa [2], the Activity entry is “Dose-dependent effect” and the pIC50 is 5.57. For the same compound, the result in the experiment on HeLa [3] was Active.

For `CCC1=C(C)c2cc3[nH]c(cc4nc(c5c6[nH]c(cc1n2)c(C)c6C(=O)N(OC)C5=O)[C@@H](CCC(=O)OC)[C@@H]4C)c(C)c3/C=C/c1ccc2ccccc2[n+]1C`, in the experiment on HeLa [1], the outcome was inactive. In addition, in the experiment on HeLa [2], the Activity entry was “Dose-dependent effect” and the pIC50 is 6.01. The result in the experiment with HeLa [3] was Active.
